These results are taken from patent US20120238488A1, “COMPOUNDS AND METHODS FOR TREATING NEOPLASIA” (priority 2009, published 2012).

The test system of test [1] is 22 different cell lines, nine tumor panels (lung, melanoma, ovary, prostate, CNS, breast, pancreas colon and renal). The test is described as follows: SRB assay, all tumor cell line panels (summary statements). The class given is cell-based, human. Particulars: lung, breast, CNS, colon, prostate, ovary, pancreas, kidney and melanoma lines, including a multidrug resistant cell line. As for the experimental part: (§1) SRB assays were performed according to standard National Cancer Institute Guidelines. Briefly, human tumor cells from different cancer panels were seeded into 96 well plates in 100 μL (plating densities ranging from 5-40,000 cells/well depending on the doubling time of individual cell lines) in serum-containing media for twenty-four hours prior to the addition of the compounds to be assayed. After 24 hours, one plate of each cell line was fixed in situ with trichloroacetic acid (TCA). The fixed slides were used to determine the cell population for each cell line at the time of drug addition (Tz). Each compound to be tested was solubilized in DMSO and the desired concentration was then added to the medium and diluted serially 1:10 to provide a total of five or ten drug concentrations plus control (in a final volume of 200 μL). The starting dose before any dilution was 100 uM for all compounds.
(§2) Following drug addition, each culture was incubated for forty-eight hours. The assay was terminated with the addition of cold TCA. The supernatant was discarded, and the plates were washed with tap water and air dried. Sulforhodamine B (SRB) solution was then added to each well. After staining, the bound stain was solubilized and the absorbance was read on an automated plate reader at a wavelength of 515 nm.
(§3) Using the absorbance measurements [time zero, (Tz), control growth, (C), and test growth in the presence of drug at the ten concentration levels (Ti)], the percentage growth was calculated at each of the drug concentrations levels. Percentage growth inhibition was calculated as:
Three dose response parameters were calculated for each experimental agent. […] The drug concentration resulting in total growth inhibition (TGI) was calculated from Ti=Tz. The LC50 (concentration of drug resulting in a 50% reduction in the measured protein at the end of the drug treatment as compared to that at the beginning) indicating a net loss of cells following treatment was calculated from [(Ti−Tz)/Tz]×100=−50.
Each of these parameters in Table 4 was calculated in a sulforhodamine B (SRB) assay, which provides a colorimetric measure of a compound's anti-cancer activity. SRB assays were performed with compounds of the invention in 22 different cell lines (shaded in light gray in Table 4), which represent nine different tumor panels (lung, melanoma, ovary, prostate, CNS, breast, pancreas colon and renal). […] Paclitaxel was added as a non-Na^+K^+-ATPase inhibitor control.
On the technique in general: In SRB staining, fixed cells bind dye roughly in proportion to their protein.

For the next test, the system named is H160 (Lung). In words: SRB assay, H160. It counts as cell-based, human. The conditions noted are these: 48 h. As for the experimental part:
as §1, §2, §3
(§4) [(Ti−Tz)/(C−Tz)]×100 for concentrations for which Ti>/=Tz
(§5) [(Ti−Tz)/Tz]×100 for concentrations for which Ti<Tz.
(§6) Three dose response parameters were calculated for each experimental agent. Growth inhibition of 50% (GI50) was calculated from [(Ti−Tz)/(C−Tz)]×100=50, which was the drug concentration resulting in a 50% reduction in the net protein increase (as measured by SRB staining) in control cells during the drug. The drug concentration resulting in total growth inhibition (TGI) was calculated from Ti=Tz. The LC50 (concentration of drug resulting in a 50% reduction in the measured protein at the end of the drug treatment as compared to that at the beginning) indicating a net loss of cells following treatment was calculated from [(Ti−Tz)/Tz]×100=−50.
(§7) Values were calculated for each of these three parameters when the level of activity was reached; however, if the effect was not reached or was exceeded, the value for that parameter was expressed as greater or less than the maximum or minimum concentration tested.
(§8) Table 4 summarizes results characterizing the effects of compound Nos. 120, 12, 61, 1, and 56 on GI50, which measures the cell growth inhibitory power of the compound, TGI, which measures cytostatic effect (TGI) and LC50, which signifies cytotoxic effect. Each of these parameters in Table 4 was calculated in a sulforhodamine B (SRB) assay, which provides a colorimetric measure of a compound's anti-cancer activity. SRB assays were performed with compounds of the invention in 22 different cell lines (shaded in light gray in Table 4), which represent nine different tumor panels (lung, melanoma, ovary, prostate, CNS, breast, pancreas colon and renal). Ouabain and digoxin were used as controls. Paclitaxel was added as a non-Na^+K^+-ATPase inhibitor control.

The subject of the next test is MCF7 (Breast). The test is described as follows: SRB assay, MCF7. It counts as cell-based, human. As for the experimental part:
as §1, §2, §3, §4, §5, §6, §7, §8

A further test has as its system PCJ (Prostate). The test is described as follows: SRB assay, PCJ. Particulars: Homo sapiens, 48 h. It counts as cell-based. As for the experimental part:
as §1, §2, §3, §4, §5, §6, §7, §8

The next test relates to SF268 (CNS). In words: SRB assay, SF268. The class given is cell-based. The conditions noted are these: Homo sapiens. As for the experimental part: as §1, §2, §3, §4, §5, §6, §7, §8
The test system of the next test is HCT116 (Colon). The test is described as follows: SRB assay, HCT116. The class given is cell-based. Particulars: Homo sapiens. As for the experimental part:
as §1, §2, §3, §4, §5, §6, §7, §8

The subject of test [2] is membrane androgen receptor. The test is described as follows: Membrane androgen receptor competition assay, DU145 cells. The class given is binding. Particulars: 40 μM compound 30 minutes before 40 μM testosterone-HSA-FITC, FIGS. 3B, 3C. An excerpt: To assess whether compounds of the invention were capable of binding directly to the membrane androgen receptor, a fluorescent-based assay was used to measure the ability of a given compound to preclude binding of a fluorescent mAR ligand (testosterone-HSA-FITC conjugates) to its receptor in LNCaP and DU145 cells (see Kampa, M et al, 2002, Faseb J 16:1429-1431, and PCT/U52007/007913).
The detection of membrane androgen receptors using fluorescent testosterone-serum albumin conjugates was performed as described by Kampa, M et al, 2002, Faseb J 16:1429-1431, with minor modifications. Briefly, LNCaP or DU145 prostate cancer cells were cultured on 0.1% gelatin-coated glass coverslips in RPMI 1640 medium supplemented with 2 mM L-Glutamine, 10% Fetal Bovine Serum and 1% Penicillin/Streptomycin for at least 48 hours until reaching 70% confluency. After a 24 hour serum starvation period, cells were incubated with 40 μM testosterone-HSA-FITC for 1 hour at room temperature. The cells were then washed three times with phosphate buffered saline (PBS) and fixed with 3.7% formaldehyde in PBS for 5 minutes at room temperature. Human serum albumin-FITC was used as a control for background staining. […] Coverslips were mounted on slides by using the Slow Fade/Antifade Reagent (Molecular Probes) and studied under a LEICA DMLB microscope, equipped with the appropriate fluorescence filters and a Leica DC 300F camera. Specimens were analyzed using the Leica FW4000 computer program.
To determine the capacity of a given compound to preclude binding of fluorescent testosterone-HSA conjugates (TAC) to the membrane androgen receptor, starved LNCaP or DU145 cells on coverslips prepared as described above were pre-treated with 40 μM of the indicated compound for 30 minutes prior to the addition of testosterone-HSA-FITC. […] Specimens were prepared and analyzed as described above. Compounds binding to the membrane androgen receptor preclude binding of fluorescent testosterone-HSA conjugates to their target and abolish membrane-specific fluorescence.

Broadly, the TGI is the concentration giving total growth inhibition. As usually defined, the GI50 is the concentration that inhibits growth by half.

For `C[C@]12CCC(=NOCCn3cc(CN)nn3)CC1CCC1C2CC[C@]2(C)C(=O)CCC12` (stereo partly drawn) [Compound 31, (10S,13S)-3-(2-(4-(aminomethyl)-1H-1,2,3-triazol-1-yl)ethoxyimino)-10,13-dimethyltetradecahydro-1H-cyclopenta[a]phenanthren-17(2H)-one], the “viability and/or cell proliferation of neoplastic cell lines” value in test [1] is on record as “reduced the viability and/or cell proliferation”.
For the compound `C[C@@H]1O[C@@H](O[C@H]2C[C@@H](O)[C@]3(CO)[C@H]4[C@H](O)C[C@]5(C)[C@@H](C6=CC(=O)OC6)CC[C@]5(O)[C@@H]4CC[C@]3(O)C2)[C@H](O)[C@H](O)[C@H]1O` [Ouabain, reference compound], the TGI was determined as 100 nM with H160 (Lung) (H160, SRB) and 200 nM with MCF7 (Breast) (MCF7, SRB, 48 h). Besides, the CC50 with H160 (Lung) (Homo sapiens, read-out: LC50) was 300 nM; in the test on MCF7 (Breast) (Homo sapiens, MCF7, 48 h, read-out: LC50) it was 300 nM; in the test with PCJ (Prostate) (read-out: LC50), 300 nM; in the test with SF268 (CNS) (SF-268, 48 h, read-out: LC50), 300 nM; with HCT116 (Colon) (HCT-116, 48 h, read-out: LC50), greater than 50000 nM. Further, the GI50 is less than 80 nM in the test on H160 (Lung) (Homo sapiens, H160, SRB); less than 80 nM in the test with MCF7 (Breast) (Homo sapiens, MCF7, SRB, 48 h); less than 80 nM in the test on PCJ (Prostate) (PCJ, SRB); less than 80 nM in the test on SF268 (CNS) (SF-268, SF268, SRB, 48 h, read-out: GI50); less than 80 nM with HCT116 (Colon) (HCT-116, HCT116, SRB, 48 h). The IC (TGI) in the test with PCJ (Prostate) (PCJ, SRB) was 100 nM; in the test on SF268 (CNS) (SF-268, SF268, SRB, 48 h, read-out: TGI), 100 nM; with HCT116 (Colon) (HCT-116, HCT116, SRB, 48 h), 4500 nM.
Consider `C[C@]12CC[C@H](O)C[C@H]1CC[C@@H]1[C@@H]2CC[C@]2(C)[C@@](O)(c3ccoc3)CC[C@]12O` [rostafuroxin, reference compound], for which the “membrane fluorescence of TAC-FITC after pre-treatment (binding to mAR precluded)” value in test [2] is given as “failed to block binding of TAC-FITC to mAR”.
